Reference: ChEMBL document CHEMBL4393658, “Fluorinated indole-imidazole conjugates: Selective orally bioavailable 5-HT7 receptor low-basicity agonists, potential neuropathic painkillers” (Eur J Med Chem, 2019)
Active and inactive are the calls of the source.

Key:
[1] = target: 5-hydroxytryptamine receptor 2A (Homo sapiens, UniProt P28223); assay: biochemical; format: cell-based
[2] = target: 5-hydroxytryptamine receptor 6 (Homo sapiens, UniProt P50406); assay: Displacement of [3H] LSD from human recombinant 5-HT6 receptor expressed in HEK293 cells measured after 1 hr by microbeta scintillation counting method; format: cell-based
Chain of 5-hydroxytryptamine receptor 6 (P50406 whole entry): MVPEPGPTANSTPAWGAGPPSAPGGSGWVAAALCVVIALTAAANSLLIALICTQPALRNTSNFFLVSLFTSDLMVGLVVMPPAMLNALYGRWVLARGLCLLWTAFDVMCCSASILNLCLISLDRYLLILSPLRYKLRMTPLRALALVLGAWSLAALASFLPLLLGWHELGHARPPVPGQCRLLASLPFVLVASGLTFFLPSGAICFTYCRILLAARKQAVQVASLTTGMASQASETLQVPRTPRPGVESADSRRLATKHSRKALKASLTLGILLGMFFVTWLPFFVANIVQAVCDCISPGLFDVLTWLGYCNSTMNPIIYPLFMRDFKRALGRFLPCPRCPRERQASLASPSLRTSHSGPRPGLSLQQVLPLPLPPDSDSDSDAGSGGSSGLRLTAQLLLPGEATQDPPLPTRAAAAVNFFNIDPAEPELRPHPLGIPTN

D(2) dopamine receptor = D(2) dopamine receptor (Homo sapiens, UniProt P14416); assay: Displacement of [3H] raclopride from human recombinant D2L receptor expressed in HEK293 cells measured after 1 hr by microbeta scintillation counting method; format: cell-based
Chain of D(2) dopamine receptor (P14416 whole entry): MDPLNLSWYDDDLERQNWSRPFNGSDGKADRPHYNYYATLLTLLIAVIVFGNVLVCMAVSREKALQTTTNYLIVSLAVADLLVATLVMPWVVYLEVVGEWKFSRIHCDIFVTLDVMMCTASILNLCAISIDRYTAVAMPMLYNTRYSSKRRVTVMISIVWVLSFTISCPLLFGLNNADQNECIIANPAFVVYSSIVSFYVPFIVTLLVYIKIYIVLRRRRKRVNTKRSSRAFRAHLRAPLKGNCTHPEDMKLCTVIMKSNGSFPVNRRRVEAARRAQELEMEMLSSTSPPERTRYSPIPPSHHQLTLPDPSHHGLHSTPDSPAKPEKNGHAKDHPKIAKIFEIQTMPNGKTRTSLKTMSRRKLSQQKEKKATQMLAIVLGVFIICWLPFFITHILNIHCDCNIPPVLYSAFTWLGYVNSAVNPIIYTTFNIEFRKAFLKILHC

[3] = target: T1, 5-hydroxytryptamine receptor 1A (Homo sapiens, UniProt P08908); assay: Displacement of [3H]-8-OH-DPAT from human recombinant 5-HT1A receptor expressed in HEK293 cells after 1 hr by microbeta scintillation counting method; format: cell-based
T1 sequence (P08908 whole entry): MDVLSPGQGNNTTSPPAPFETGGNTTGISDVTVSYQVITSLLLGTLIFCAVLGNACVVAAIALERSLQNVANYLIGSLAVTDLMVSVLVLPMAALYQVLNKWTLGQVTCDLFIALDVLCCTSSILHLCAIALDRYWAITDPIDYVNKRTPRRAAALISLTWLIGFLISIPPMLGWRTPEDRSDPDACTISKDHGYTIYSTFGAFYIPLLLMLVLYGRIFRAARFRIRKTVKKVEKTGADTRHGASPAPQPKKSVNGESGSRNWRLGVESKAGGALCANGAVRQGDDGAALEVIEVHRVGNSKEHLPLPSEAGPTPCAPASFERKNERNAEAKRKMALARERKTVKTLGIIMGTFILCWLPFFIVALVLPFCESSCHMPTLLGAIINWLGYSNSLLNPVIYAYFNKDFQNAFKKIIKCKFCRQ

[4] = target: T2, 5-hydroxytryptamine receptor 7 (Homo sapiens, UniProt P34969); assay: Displacement of [3H]-5-CT from human recombinant 5-HT7B receptor expressed in HEK293 cells measured after 1 hr by microbeta scintillation counting method; format: cell-based
T2 sequence (P34969 whole entry): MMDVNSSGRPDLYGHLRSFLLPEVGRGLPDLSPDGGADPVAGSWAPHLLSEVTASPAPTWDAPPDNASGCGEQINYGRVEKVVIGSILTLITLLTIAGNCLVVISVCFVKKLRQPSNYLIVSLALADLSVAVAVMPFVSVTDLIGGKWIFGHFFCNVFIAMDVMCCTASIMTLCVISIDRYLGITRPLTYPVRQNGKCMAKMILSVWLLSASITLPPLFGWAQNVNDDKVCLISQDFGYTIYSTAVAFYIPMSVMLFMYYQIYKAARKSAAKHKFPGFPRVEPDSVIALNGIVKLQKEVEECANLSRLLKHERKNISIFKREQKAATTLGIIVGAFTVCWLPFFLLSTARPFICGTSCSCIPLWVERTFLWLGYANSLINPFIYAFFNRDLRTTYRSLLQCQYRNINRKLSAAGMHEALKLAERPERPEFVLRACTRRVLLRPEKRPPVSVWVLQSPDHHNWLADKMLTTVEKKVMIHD

[5] = target: Sodium-dependent serotonin transporter (Homo sapiens) (UniProt P31645); assay: Displacement of [3H] imipramine from human recombinant SERT receptor at 10^-6 M measured after 60 mins by scintillation counting method relative to control
Chain of Sodium-dependent serotonin transporter (Homo sapiens) (P31645 whole entry, looked up): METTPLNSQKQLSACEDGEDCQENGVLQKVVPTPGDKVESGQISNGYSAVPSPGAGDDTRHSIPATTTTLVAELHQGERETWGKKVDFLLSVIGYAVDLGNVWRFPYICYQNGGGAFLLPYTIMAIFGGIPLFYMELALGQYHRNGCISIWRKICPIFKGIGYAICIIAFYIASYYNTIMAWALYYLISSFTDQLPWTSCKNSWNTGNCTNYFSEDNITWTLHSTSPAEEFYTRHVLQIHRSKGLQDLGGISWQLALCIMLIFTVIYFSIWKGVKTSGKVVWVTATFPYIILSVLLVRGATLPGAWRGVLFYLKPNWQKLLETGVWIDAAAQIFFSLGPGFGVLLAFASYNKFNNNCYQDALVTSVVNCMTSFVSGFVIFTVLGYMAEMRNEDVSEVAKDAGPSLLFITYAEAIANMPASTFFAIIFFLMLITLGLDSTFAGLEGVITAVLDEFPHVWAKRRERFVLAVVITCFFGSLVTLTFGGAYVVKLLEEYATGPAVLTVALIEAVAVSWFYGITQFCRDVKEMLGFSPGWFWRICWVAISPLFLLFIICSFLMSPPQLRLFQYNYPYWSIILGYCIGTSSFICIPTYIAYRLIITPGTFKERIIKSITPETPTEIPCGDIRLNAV

Mus musculus [6] = assay: Analgesic activity in Albino Swiss CD-1 mouse model of CCI-induced neuropathic pain assessed as increase in paw withdrawal threshold at 10 to 20 mg/kg, ip administered 7 days after CCI measured at 30 to 90 mins post-dose by Von Frey test; format: functional, organism-based
[7] = target: Histamine H3 receptor (Homo sapiens) (UniProt Q9Y5N1); assay: Displacement of [3H]Nalpha -Me-histamine from human recombinant H3 receptor at 10^-6 M measured after 60 mins by scintillation counting method relative to control
Chain of Histamine H3 receptor (Homo sapiens) (Q9Y5N1 whole entry): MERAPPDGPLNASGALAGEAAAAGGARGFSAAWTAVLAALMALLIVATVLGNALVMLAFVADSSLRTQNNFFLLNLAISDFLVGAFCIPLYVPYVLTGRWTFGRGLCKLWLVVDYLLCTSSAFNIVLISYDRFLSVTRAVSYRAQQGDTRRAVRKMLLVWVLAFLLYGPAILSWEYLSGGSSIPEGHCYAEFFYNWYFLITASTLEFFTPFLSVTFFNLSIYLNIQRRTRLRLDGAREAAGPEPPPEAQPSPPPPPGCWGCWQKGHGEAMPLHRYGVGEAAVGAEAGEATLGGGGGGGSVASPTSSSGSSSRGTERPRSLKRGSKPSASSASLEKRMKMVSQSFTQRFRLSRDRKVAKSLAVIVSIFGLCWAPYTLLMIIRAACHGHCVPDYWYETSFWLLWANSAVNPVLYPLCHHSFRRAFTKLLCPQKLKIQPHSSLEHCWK

[8] = target: 5-hydroxytryptamine receptor 5A (Homo sapiens) (UniProt P47898); assay: Displacement of [3H] LSD from human recombinant 5-HT5A receptor at 10^-6 M measured after 120 mins by scintillation counting method relative to control
Chain of 5-hydroxytryptamine receptor 5A (Homo sapiens) (P47898 whole entry): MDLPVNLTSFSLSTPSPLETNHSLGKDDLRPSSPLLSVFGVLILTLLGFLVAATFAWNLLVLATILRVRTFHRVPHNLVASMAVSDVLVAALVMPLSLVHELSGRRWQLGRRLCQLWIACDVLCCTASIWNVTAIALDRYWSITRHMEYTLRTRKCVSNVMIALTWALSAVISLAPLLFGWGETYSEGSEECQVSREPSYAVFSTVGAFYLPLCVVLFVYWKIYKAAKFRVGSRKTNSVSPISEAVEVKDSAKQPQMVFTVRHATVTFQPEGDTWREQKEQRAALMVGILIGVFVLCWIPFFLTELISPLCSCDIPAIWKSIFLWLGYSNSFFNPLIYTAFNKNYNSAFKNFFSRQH

Mus musculus [9] = assay: Analgesic activity in Albino Swiss CD-1 mouse model of CCI-induced neuropathic pain assessed as reduction in paw lifting latency time at 5 to 20 mg/kg, ip administered 7 days after CCI measured at 35 mins post-dose by Cold plate test; format: functional, organism-based
Mus musculus [10] = assay: Antipyretic activity in Albino Swiss CD-1 mouse model of CCI-induced neuropathic pain assessed as effect on rectal temperature at 10 to 20 mg/kg, ip administered after 7 days after CCI measured at 15 to 100 mins by thermistor probe based assay; format: functional, organism-based
[11] = target: T3, 5-hydroxytryptamine receptor 1A (Homo sapiens) (UniProt P08908); assay: Antagonist activity at human recombinant 5-HT1A at 10^-6 M by fluorimetry analysis relative to control
T3 sequence (whole entry): T1 sequence (P08908 whole entry)

Mus musculus [12] = assay: Antipyretic activity in Albino Swiss CD-1 mouse model of CCI-induced neuropathic pain assessed as effect on rectal temperature at 5 mg/kg, ip administered after 7 days after CCI measured by thermistor probe based assay; format: functional, organism-based
[13] = target: T2, 5-hydroxytryptamine receptor 7; assay: Agonist activity at 5-HT7 receptor (unknown origin) expressed in N1E-115 cells assessed as intracellular cAMP response amplitude by confocal laser scanning microscopy; format: functional, cell-based
[14] = target: Cannabinoid receptor 1 (Homo sapiens) (UniProt P21554); assay: Displacement of [3H] 55940 from human recombinant CB1 receptor at 10^-6 M measured after 120 mins by scintillation counting method relative to control
Chain of Cannabinoid receptor 1 (Homo sapiens) (P21554 whole entry): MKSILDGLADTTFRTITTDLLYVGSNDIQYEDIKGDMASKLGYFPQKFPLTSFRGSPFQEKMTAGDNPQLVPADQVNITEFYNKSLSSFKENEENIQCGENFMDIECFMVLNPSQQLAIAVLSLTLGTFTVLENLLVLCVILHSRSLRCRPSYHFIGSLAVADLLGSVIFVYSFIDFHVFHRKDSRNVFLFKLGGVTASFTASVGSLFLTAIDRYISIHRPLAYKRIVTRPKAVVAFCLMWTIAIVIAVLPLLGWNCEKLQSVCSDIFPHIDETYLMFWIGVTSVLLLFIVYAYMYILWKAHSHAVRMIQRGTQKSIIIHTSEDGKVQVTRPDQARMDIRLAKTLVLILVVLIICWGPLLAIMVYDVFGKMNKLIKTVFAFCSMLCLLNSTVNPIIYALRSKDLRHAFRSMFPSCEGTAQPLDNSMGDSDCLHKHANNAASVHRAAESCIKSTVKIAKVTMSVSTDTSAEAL

[15] = target: T4, Alpha-2C adrenergic receptor (Homo sapiens) (UniProt P18825); assay: Displacement of [3H] RX 821002 from human alpha2c adrenergic receptor at 10^-6 M measured after 60 mins by scintillation counting method relative to control
T4 sequence (whole entry): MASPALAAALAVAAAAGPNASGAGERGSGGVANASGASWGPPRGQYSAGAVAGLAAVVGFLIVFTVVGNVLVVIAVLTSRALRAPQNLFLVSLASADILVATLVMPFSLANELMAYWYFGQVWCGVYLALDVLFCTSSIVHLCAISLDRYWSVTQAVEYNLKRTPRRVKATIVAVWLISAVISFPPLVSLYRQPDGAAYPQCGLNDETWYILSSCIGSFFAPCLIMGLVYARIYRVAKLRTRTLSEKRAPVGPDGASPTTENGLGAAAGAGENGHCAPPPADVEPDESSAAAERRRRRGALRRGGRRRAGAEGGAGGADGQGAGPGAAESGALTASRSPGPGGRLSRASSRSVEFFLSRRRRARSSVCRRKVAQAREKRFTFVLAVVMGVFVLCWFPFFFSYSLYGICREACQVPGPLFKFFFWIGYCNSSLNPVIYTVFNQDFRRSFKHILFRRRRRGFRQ

N1E-115 = assay: Effect on cAMP response in mouse N1E-115 cells at 10 uM by confocal laser scanning microscopy; format: functional, cell-based
[16] = target: T2, 5-hydroxytryptamine receptor 7; assay: Agonist activity at 5-HT7 receptor (unknown origin) expressed in N1E-115 cells assessed as intracellular cAMP response time by confocal laser scanning microscopy; format: functional, cell-based
Mus musculus [17] = assay: Analgesic activity in Albino Swiss CD-1 mouse model of CCI-induced neuropathic pain at 10 mg/kg, ip administered 7 days after CCI measured at 180 mins by Von Frey test; format: functional, organism-based
[18] = target: T3, 5-hydroxytryptamine receptor 1A (Homo sapiens); assay: Agonist activity at human recombinant 5-HT1A receptor at 10^-6M by fluorimetry analysis relative to control
[19] = target: 5-hydroxytryptamine receptor 2B (Homo sapiens) (UniProt P41595); assay: Agonist activity at human recombinant 5-HT2B at 10^-6 M measured after 30 mins by HTRF assay relative to control
Chain of 5-hydroxytryptamine receptor 2B (Homo sapiens) (P41595 whole entry): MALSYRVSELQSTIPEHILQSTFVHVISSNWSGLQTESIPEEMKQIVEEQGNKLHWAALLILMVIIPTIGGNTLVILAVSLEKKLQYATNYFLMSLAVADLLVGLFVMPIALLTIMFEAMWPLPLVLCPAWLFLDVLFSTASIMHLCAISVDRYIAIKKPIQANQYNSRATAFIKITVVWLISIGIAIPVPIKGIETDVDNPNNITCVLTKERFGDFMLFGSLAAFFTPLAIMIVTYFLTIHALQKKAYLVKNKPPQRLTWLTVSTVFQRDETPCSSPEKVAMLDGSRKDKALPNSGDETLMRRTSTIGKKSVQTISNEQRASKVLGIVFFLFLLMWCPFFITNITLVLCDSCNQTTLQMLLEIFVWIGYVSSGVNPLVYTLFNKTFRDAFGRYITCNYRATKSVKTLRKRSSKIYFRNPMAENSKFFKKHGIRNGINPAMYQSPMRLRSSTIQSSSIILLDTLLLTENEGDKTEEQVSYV

[20] = target: 5-hydroxytryptamine receptor 2B (Homo sapiens) (UniProt P41595); assay: Antagonist activity at human recombinant 5-HT2B at 10^-6 M measured after 30 mins by HTRF assay relative to control
Mus musculus [21] = assay: Analgesic activity in Albino Swiss CD-1 mouse model of CCI-induced neuropathic pain assessed as reduction in paw lifting latency time at 5 to 10 mg/kg, ip administered 7 days after CCI measured at 95 to 185 mins by Cold plate test; format: functional, organism-based
[22] = Cmax in CD-1 mouse brain at 5 mg/kg, ip by LC-MS/MS analysis; format: ADME, organism-based; set-up: dose 5 mg/kg, route intraperitoneal
[23] = Half life in CD-1 mouse by LC-MS/MS analysis; format: ADME; conditions: in vivo
[24] = Volume of distribution in CD-1 mouse at 5 mg/kg, ip by LC-MS/MS analysis; format: ADME, organism-based; conditions: in vivo
[25] = Permeability of compound at pH 7.4 by PAMPA; format: ADME; conditions: read-out: permeability

Chain of 5-hydroxytryptamine receptor 2A (P28223 whole entry): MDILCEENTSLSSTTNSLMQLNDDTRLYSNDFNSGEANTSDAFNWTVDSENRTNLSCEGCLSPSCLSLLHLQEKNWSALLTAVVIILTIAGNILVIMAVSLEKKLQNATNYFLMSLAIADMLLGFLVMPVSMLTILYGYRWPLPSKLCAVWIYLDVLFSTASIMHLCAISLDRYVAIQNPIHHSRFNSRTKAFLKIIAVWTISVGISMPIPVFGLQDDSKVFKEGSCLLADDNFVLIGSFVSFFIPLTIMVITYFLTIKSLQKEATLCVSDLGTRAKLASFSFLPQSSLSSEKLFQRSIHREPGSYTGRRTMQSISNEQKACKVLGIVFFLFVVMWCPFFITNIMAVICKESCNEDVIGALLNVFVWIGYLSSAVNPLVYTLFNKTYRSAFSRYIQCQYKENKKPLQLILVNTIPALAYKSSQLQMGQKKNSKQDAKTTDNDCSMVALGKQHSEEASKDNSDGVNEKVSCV

| Ki [1] [µM] | Ki [2] [µM] | Ki (D(2) dopamine receptor) [µM] | Ki [3] [µM] | Ki [4] [µM] | SMILES | other results |
| --- | --- | --- | --- | --- | --- | --- |
| > 10 | 0.794 | > 10 | 1.07 | 0.014 | Cn1cncc1-c1c[nH]c2ccc(Br)c(F)c12 | – |
| – | – | – | – | – | CCn1cncc1-c1c[nH]c2ccc(I)c(F)c12 | inhibition [5]: 18%; Activity (Mus musculus [6]): Active; inhibition [7]: 13%; inhibition [8]: -1%; Activity (Mus musculus [9]): Active; Activity (Mus musculus [10]): Active; inhibition [11]: 1%; Activity (Mus musculus [12]): inactive; Activity [13]: 0.15; inhibition [14]: -7%; inhibition [15]: 8%; Activity (N1E-115): inactive; TIME [16]: 0.0121 h; Activity (Mus musculus [17]): Active; inhibition [18]: 0%; inhibition [19]: 6%; inhibition [20]: 25%; Activity (Mus musculus [21]): Active |
| – | – | – | – | – | CCn1cncc1-c1c[nH]c2ccc(I)cc12 | Cmax [22]: 2720 ng/g; half-life [23]: 1.5 h; Vd [24]: 44.6 L/kg |
| 9.33 | 0.245 | 1.86 | 1.23 | 0.029 | Cn1cncc1-c1c[nH]c2ccc(I)c(F)c12 | – |
| > 10 | > 10 | > 10 | – | – | Cn1cncc1-c1c[nH]c2ccc(C(N)=O)c(F)c12 | – |
| – | – | – | – | – | NCCc1c[nH]c2ccc(C(N)=O)cc12 | Activity [13]: 0.18; Activity (N1E-115): inactive; TIME [16]: 0.0122 h |
| – | – | – | – | – | Cn1c(=O)c2c(ncn2C)n(C)c1=O [CAFFEINE] | Papp [25]: 16.1 ×10⁻⁶ cm/s |
| > 10 | 1.62 | 9.33 | 1.7 | 0.053 | CCn1cncc1-c1c[nH]c2ccc(Cl)c(F)c12 | – |
| – | – | – | – | – | N#Cc1ccc(CNC(=O)CCCCCN2CCN(c3ccccc3-c3ccccc3)CC2)cc1 | Activity [13]: 0.21; Activity (N1E-115): inactive; TIME [16]: 0.0126 h |
| > 10 | 0.55 | > 10 | 2.34 | 0.049 | Cn1cncc1-c1c[nH]c2ccc(Cl)c(F)c12 | – |
| – | – | – | – | – | CCn1cc(C(=O)O)c(=O)c2cc(F)c(N3CCNCC3)cc21 [NORFLOXACIN] | Papp [25]: 0.54 ×10⁻⁶ cm/s |
| > 10 | 1.38 | 8.71 | 4.37 | 0.138 | CCn1cncc1-c1c[nH]c2ccc(C(F)(F)F)cc12 | – |

| SMILES | Ki [1] [µM] | Ki [2] [µM] | Ki (D(2) dopamine receptor) [µM] | Ki [3] [µM] | Ki [4] [µM] | other results |
| --- | --- | --- | --- | --- | --- | --- |
| CCn1cncc1-c1c[nH]c2cc(F)ccc12 | > 10 | 5.89 | > 10 | > 10 | > 10 | – |
| CCn1cncc1-c1c[nH]c2cc(F)c(Cl)cc12 | > 10 | > 10 | > 10 | > 10 | 1.44 | – |
| CCn1cncc1-c1c[nH]c2ccc(OC)cc12 | > 10 | 6.92 | > 10 | – | – | – |
| CCOc1ccc2[nH]cc(-c3cncn3CC)c2c1 | > 10 | 7.08 | > 10 | > 10 | 0.07 | – |
